The term IC50 denotes the midpoint of a concentration-inhibition curve. Higher therefore signals weaker potency.

Where a name gives a salt, the structure may show the parent alone.

For the assay, the target named is IRE1α (Homo sapiens (Human), UniProt O75460, D688N). In words: IRE1α TR-FRET competition binding assay (IRE1α HTRF). Conditions: TR-FRET competition binding to kinase domain of IRE1α. The gist of the method: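 Kinase domain (0.25 nM) pre-bound to 2 nM Eu anti-His antibody for 1 h at 4° C in HEPES pH 7.5/MgCl2/Brij 35/DTT/gamma globulin buffer, then mixed with compounds and 2 nM Alexa 647 ATP-competitive probe. 1 h at room temperature; probe displacement read as TR-FRET (Ex 347 nm, Em 665/615 nm).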
Sequence of IRE1α (O75460 547-977 D688N): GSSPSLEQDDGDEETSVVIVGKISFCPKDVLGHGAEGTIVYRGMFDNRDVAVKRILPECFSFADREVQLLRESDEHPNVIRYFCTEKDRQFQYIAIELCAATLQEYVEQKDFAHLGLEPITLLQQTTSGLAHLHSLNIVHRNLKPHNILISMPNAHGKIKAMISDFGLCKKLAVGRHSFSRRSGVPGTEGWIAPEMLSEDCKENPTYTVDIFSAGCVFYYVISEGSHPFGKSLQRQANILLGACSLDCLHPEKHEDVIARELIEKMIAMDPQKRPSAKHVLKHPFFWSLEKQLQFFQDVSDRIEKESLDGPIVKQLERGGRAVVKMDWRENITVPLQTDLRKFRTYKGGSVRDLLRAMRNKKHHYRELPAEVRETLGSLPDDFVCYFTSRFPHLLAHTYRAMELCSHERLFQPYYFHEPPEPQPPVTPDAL
(In general: TR-FRET usually uses a lanthanide donor and a delayed reading to cut background.)
`COCCN(C)[C@H]1CC[C@H](Nc2ncc3cc(-c4ccc(NS(=O)(=O)CCC(F)(F)F)nc4)c(=O)n(C(C)C)c3n2)CC1` [Compound 126, 3,3,3-Trifluoro-N-(5-(8-isopropyl-2-(((1r,4r)-4-((2-methoxyethyl)(methyl)amino)cyclohexyl)amino)-7-oxo-7,8-dihydropyrido[2,3-d]pyrimidin-6-yl)pyridin-2-yl)propane-1-sulfonamide] gave an IC50 of 0.24 nM.

Compound `CC(C)n1c(=O)c(-c2cc(F)c(NS(=O)(=O)Cc3ccc(F)cc3)cc2F)cc2cnc(N[C@H]3CC[C@H](N(C)C)CC3)nc21` [Compound 127, N-(4-(2-(((1r,4r)-4-(Dimethylamino)cyclohexyl)amino)-8-isopropyl-7-oxo-7,8-dihydropyrido[2,3-d]pyrimidin-6-yl)-2,5-difluorophenyl)-1-(4-fluorophenyl)methanesulfonamide] registered an IC50 of 0.11 nM.

On to `CC(C)n1c(=O)c(-c2c(F)cc(NS(=O)(=O)Cc3ccc(F)cc3)c(F)c2F)cc2cnc(N[C@H]3CC[C@H](N(C)C)CC3)nc21` [Compound 128, N-(4-(2-(((1r,4r)-4-(Dimethylamino)cyclohexyl)amino)-8-isopropyl-7-oxo-7,8-dihydropyrido[2,3-d]pyrimidin-6-yl)-2,3,5-trifluorophenyl)-1-(4-fluorophenyl)methanesulfonamide], for which the IC50 stood at 0.15 nM.

In turn, `CC(C)n1c(=O)c(-c2c(F)cc(NS(=O)(=O)Cc3ccc(F)cc3)cc2F)cc2cnc(N[C@H]3CC[C@H](N(C)C)CC3)nc21` [Compound 129, N-(4-(2-(((1r,4r)-4-(Dimethylamino)cyclohexyl)amino)-8-isopropyl-7-oxo-7,8-dihydropyrido[2,3-d]pyrimidin-6-yl)-3,5-difluorophenyl)-1-(4-fluorophenyl)methanesulfonamide hydrochloride] registered an IC50 of 0.08 nM.

`CC(C)n1c(=O)c(-c2c(F)cc(NS(=O)(=O)Cc3ccc(F)cc3)cc2F)cc2cnc(N[C@@H]3CNC[C@@H](F)C3)nc21` [Compound 130, N-(3,5-Difluoro-4-(2-(((3S,5S)-5-fluoropiperidin-3-yl)amino)-8-isopropyl-7-oxo-7,8-dihydropyrido[2,3-d]pyrimidin-6-yl)phenyl)-1-(4-fluorophenyl)methanesulfonamide hydrochloride] registered an IC50 of 0.38 nM.

In turn, `COc1nc(NS(=O)(=O)c2ccccc2Cl)ccc1-c1cc2cnc(N[C@H]3CC[C@H](N(C)C)CC3)nc2n(C(C)C)c1=O` [Compound 131, 2-Chloro-N-(5-(2-(((1r,4r)-4-(dimethylamino)cyclohexyl)amino)-8-isopropyl-7-oxo-7,8-dihydropyrido[2,3-d]pyrimidin-6-yl)-6-methoxypyridin-2-yl)benzenesulfonamide] displayed an IC50 of 0.21 nM.

For `Cc1nc(NS(=O)(=O)c2ccc(F)cc2)ccc1-c1cc2cnc(N[C@H]3CC[C@H](N(C)C)CC3)nc2n(C(C)C)c1=O` [Compound 132, N-(5-(2-(((1r,4r)-4-(Dimethylamino)cyclohexyl)amino)-8-isopropyl-7-oxo-7,8-dihydropyrido[2,3-d]pyrimidin-6-yl)-6-methylpyridin-2-yl)-4-fluorobenzenesulfonamide], the IC50 turned out to be 0.52 nM.

Regarding `Cc1nc(NS(=O)(=O)c2ccccc2Cl)ccc1-c1cc2cnc(N[C@@H]3CNC[C@@H](F)C3)nc2n(C(C)C)c1=O` [Compound 133, 2-Chloro-N-(5-(2-(((3S,5S)-5-fluoropiperidin-3-yl)amino)-8-isopropyl-7-oxo-7,8-dihydropyrido[2,3-d]pyrimidin-6-yl)-6-methylpyridin-2-yl)benzenesulfonamide], the IC50 came to 0.62 nM.

Compound `CC(C)n1c(=O)c(-c2ccc(NS(=O)(=O)C3CCCC3)c(F)c2)cc2cnc(N[C@H]3CC[C@H](N(C)C)CC3)nc21` [Compound 134, N-(4-(2-(((1r,4r)-4-(Dimethylamino)cyclohexyl)amino)-8-isopropyl-7-oxo-7,8-dihydropyrido[2,3-d]pyrimidin-6-yl)-2-fluorophenyl)cyclopentanesulfonamide hydrochloride] gave an IC50 of 0.19 nM.

Turning to `Cc1nc(NS(=O)(=O)c2ccccc2Cl)ccc1-c1cc2cnc(N[C@H]3CC[C@H](N(C)C)CC3)nc2n(C(C)C)c1=O` [Compound 135, 2-Chloro-N-(5-(2-(((1r,4r)-4-(dimethylamino)cyclohexyl)amino)-8-isopropyl-7-oxo-7,8-dihydropyrido[2,3-d]pyrimidin-6-yl)-6-methylpyridin-2-yl)benzenesulfonamide], the concentration for half-maximal inhibition (IC50) was determined as 0.43 nM.

`Cc1nc(NS(=O)(=O)c2ccccc2C#N)ccc1-c1cc2cnc(N[C@H]3CC[C@H](N(C)C)CC3)nc2n(C(C)C)c1=O` [Compound 136, 2-Cyano-N-(5-(2-(((1r,4r)-4-(dimethylamino)cyclohexyl)amino)-8-isopropyl-7-oxo-7,8-dihydropyrido[2,3-d]pyrimidin-6-yl)-6-methylpyridin-2-yl)benzenesulfonamide] showed an IC50 of 0.29 nM.

Regarding `Cc1cccc(S(=O)(=O)Nc2ccc(-c3cc4cnc(N[C@H]5CC[C@H](N(C)C)CC5)nc4n(C(C)C)c3=O)c(C)n2)c1F` [Compound 137, N-(5-(2-(((1r,4r)-4-(Dimethylamino)cyclohexyl)amino)-8-isopropyl-7-oxo-7,8-dihydropyrido[2,3-d]pyrimidin-6-yl)-6-methylpyridin-2-yl)-2-fluoro-3-methylbenzenesulfonamide], the IC50 is 0.48 nM.

In the case of `COCCN(C)[C@H]1CC[C@H](Nc2ncc3cc(-c4ccc(NS(=O)(=O)CCC(F)(F)F)c(F)c4)c(=O)n(C(C)C)c3n2)CC1` [Compound 138, 3,3,3-Trifluoro-N-(2-fluoro-4-(8-isopropyl-2-(((1r,4r)-4-((2-methoxyethyl)(methyl)amino)cyclohexyl)amino)-7-oxo-7,8-dihydropyrido[2,3-d]pyrimidin-6-yl)phenyl)propane-1-sulfonamide], the IC50 was found to be 0.19 nM.

For `CC(C)n1c(=O)c(-c2cc(F)c(NS(=O)(=O)Cc3cccnc3C(F)(F)F)c(F)c2F)cc2cnc(N[C@@H]3CNC[C@@H](F)C3)nc21` [Compound 139, N-(2,3,6-Trifluoro-4-(2-(((3S,5S)-5-fluoropiperidin-3-yl)amino)-8-isopropyl-7-oxo-7,8-dihydropyrido[2,3-d]pyrimidin-6-yl)phenyl)-1-(2-(trifluoromethyl)pyridin-3-yl)methanesulfonamide], the IC50 came to 0.27 nM.

With `Cc1nc(NS(=O)(=O)c2ccccc2F)ccc1-c1cc2cnc(N[C@H]3CC[C@H](N(C)C)CC3)nc2n(C(C)C)c1=O` [Compound 140, N-(5-(2-(((1r,4r)-4-(Dimethylamino)cyclohexyl)amino)-8-isopropyl-7-oxo-7,8-dihydropyrido[2,3-d]pyrimidin-6-yl)-6-methylpyridin-2-yl)-2-fluorobenzenesulfonamide], the IC50 is 0.3 nM.

For the compound `CC(C)n1c(=O)c(-c2cc(F)c(NS(=O)(=O)Cc3ccc(F)cc3)c(F)c2F)cc2cnc(N[C@H]3CC[C@H](N(C)CCF)CC3)nc21` [Compound 141, 1-(4-Fluorophenyl)-N-(2,3,6-trifluoro-4-(2-(((1r,4r)-4-((2-fluoroethyl)(methyl)amino)cyclohexyl)amino)-8-isopropyl-7-oxo-7,8-dihydropyrido[2,3-d]pyrimidin-6-yl)phenyl)methanesulfonamide], the IC50 was 0.18 nM.

The compound `Cc1nc(NS(=O)(=O)c2cccc(C#N)c2)ccc1-c1cc2cnc(N[C@H]3CC[C@H](N(C)C)CC3)nc2n(C(C)C)c1=O` [Compound 142, 3-Cyano-N-(5-(2-(((1r,4r)-4-(dimethylamino)cyclohexyl)amino)-8-isopropyl-7-oxo-7,8-dihydropyrido[2,3-d]pyrimidin-6-yl)-6-methylpyridin-2-yl)benzenesulfonamide] registered an IC50 of 0.69 nM.

`CC(C)n1c(=O)c(-c2ccc(NS(=O)(=O)CCC(F)(F)F)nc2)cc2cnc(N[C@H]3CC[C@H](N(C)CCF)CC3)nc21` [Compound 143, 3,3,3-Trifluoro-N-(5-(2-(((1r,4r)-4-((2-fluoroethyl)(methyl)amino)cyclohexyl)amino)-8-isopropyl-7-oxo-7,8-dihydropyrido[2,3-d]pyrimidin-6-yl)pyridin-2-yl)propane-1-sulfonamide] came in with an IC50 of 0.3 nM.

For the compound `CC(C)n1c(=O)c(-c2ccc(NS(=O)(=O)c3ccccc3)nc2)cc2cnc(N[C@H]3CC[C@H](N(C)CCF)CC3)nc21` [Compound 144, N-(5-(2-(((1r,4r)-4-((2-Fluoroethyl)(methyl)amino)cyclohexyl)amino)-8-isopropyl-7-oxo-7,8-dihydropyrido[2,3-d]pyrimidin-6-yl)pyridin-2-yl)benzenesulfonamide], the IC50 is 0.18 nM.

For the compound `Cc1nc(NS(=O)(=O)c2ccccc2Cl)ccc1-c1cc2cnc(N[C@H]3CC[C@H](N(C)CCF)CC3)nc2n(C(C)C)c1=O` [Compound 145, 2-Chloro-N-(5-(2-(((1r,4r)-4-((2-fluoroethyl)(methyl)amino)cyclohexyl)amino)-8-isopropyl-7-oxo-7,8-dihydropyrido[2,3-d]pyrimidin-6-yl)-6-methylpyridin-2-yl)benzenesulfonamide], the half-inhibitory concentration (IC50) turned out to be 0.27 nM.

With `CC(C)n1c(=O)c(-c2ccc(NS(=O)(=O)c3ccccc3Cl)nc2)cc2cnc(N[C@H]3CC[C@H](N(C)CCF)CC3)nc21` [Compound 146, 2-Chloro-N-(5-(2-(((1r,4r)-4-((2-fluoroethyl)(methyl)amino)cyclohexyl)amino)-8-isopropyl-7-oxo-7,8-dihydropyrido[2,3-d]pyrimidin-6-yl)pyridin-2-yl)benzenesulfonamide hydrochloride], the IC50 is 0.16 nM.

Consider `CC(C)n1c(=O)c(-c2ccc(NS(=O)(=O)c3ccccc3Cl)nc2)cc2cnc(N[C@@H]3CNC[C@@H](F)C3)nc21` [Compound 147, 2-Chloro-N-(5-(2-(((3S,5S)-5-fluoropiperidin-3-yl)amino)-8-isopropyl-7-oxo-7,8-dihydropyrido[2,3-d]pyrimidin-6-yl)pyridin-2-yl)benzenesulfonamide], for which the IC50 was 0.27 nM.

The values are drawn from patent publication US12344603B2 (Genentech, Inc., priority 2020, dated 2025).
